Test results taken from BindingDB's records for doi:10.1007/bf00168610 (UniversitÄT Heidelberg, 1991).
Several values for one entry are separate records, joined by “and”; a condition that tells them apart may be missing. Identical values can stand only once.

Assays:
Adenosine receptor A3 = target: T1, Adenosine receptor A3 (Ovis aries, UniProt P35342)
T1 sequence (P35342 whole entry): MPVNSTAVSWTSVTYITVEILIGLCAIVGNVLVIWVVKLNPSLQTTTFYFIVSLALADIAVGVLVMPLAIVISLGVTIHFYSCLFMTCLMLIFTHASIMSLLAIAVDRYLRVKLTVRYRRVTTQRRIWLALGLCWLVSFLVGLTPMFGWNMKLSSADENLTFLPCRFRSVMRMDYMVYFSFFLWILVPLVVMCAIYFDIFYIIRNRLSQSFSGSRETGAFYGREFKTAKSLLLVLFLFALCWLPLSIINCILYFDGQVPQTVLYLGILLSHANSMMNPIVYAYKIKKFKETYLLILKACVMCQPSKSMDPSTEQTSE

P2Y purinoceptor 2 = P2Y purinoceptor 2 (Cricetulus griseus, UniProt P58825)
Sequence of P2Y purinoceptor 2 (P58825 whole entry): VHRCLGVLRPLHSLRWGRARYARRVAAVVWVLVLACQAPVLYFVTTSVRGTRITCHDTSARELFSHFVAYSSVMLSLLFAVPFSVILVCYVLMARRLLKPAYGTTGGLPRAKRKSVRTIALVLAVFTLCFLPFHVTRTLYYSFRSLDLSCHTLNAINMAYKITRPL

Adenosine receptor A1 [1] = target: T2, Adenosine receptor A1 (Bos taurus, UniProt P28190)
T2 sequence (P28190 whole entry): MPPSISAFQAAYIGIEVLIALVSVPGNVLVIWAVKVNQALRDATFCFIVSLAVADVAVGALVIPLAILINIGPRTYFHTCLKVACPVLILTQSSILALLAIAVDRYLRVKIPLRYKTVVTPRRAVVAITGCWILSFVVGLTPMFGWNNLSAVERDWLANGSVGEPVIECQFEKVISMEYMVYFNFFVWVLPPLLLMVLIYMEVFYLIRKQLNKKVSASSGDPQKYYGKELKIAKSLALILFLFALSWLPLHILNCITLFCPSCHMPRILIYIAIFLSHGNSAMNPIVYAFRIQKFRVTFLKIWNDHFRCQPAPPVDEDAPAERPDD

Adenosine receptor A1 [2] = target: T3, Adenosine receptor A1 (Rattus norvegicus, UniProt P25099)
T3 sequence (P25099 whole entry): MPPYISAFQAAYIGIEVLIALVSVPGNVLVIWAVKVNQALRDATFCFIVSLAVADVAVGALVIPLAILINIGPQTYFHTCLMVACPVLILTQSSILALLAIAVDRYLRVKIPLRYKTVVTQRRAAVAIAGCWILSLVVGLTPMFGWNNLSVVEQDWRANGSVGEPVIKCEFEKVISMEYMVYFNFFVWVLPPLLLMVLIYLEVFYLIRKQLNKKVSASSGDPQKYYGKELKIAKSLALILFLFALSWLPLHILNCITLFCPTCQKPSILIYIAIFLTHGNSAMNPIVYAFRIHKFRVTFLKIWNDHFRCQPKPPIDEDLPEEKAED

Adenosine receptor A1 [3] = target: T4, Adenosine receptor A1 (Oryctolagus cuniculus, UniProt P34970)
T4 sequence (P34970 whole entry): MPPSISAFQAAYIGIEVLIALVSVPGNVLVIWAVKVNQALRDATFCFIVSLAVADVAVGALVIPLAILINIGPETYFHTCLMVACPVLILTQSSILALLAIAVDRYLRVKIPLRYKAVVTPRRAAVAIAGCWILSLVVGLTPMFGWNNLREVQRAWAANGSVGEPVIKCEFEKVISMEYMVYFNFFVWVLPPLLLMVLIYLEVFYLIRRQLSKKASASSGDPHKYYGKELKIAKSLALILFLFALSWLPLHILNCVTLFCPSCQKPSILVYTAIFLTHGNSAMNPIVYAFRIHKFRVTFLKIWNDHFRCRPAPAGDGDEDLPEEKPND

Adenosine receptor A1 [4] = target: T5, Adenosine receptor A1 (Cavia porcellus, UniProt P47745)
T5 sequence (P47745 whole entry): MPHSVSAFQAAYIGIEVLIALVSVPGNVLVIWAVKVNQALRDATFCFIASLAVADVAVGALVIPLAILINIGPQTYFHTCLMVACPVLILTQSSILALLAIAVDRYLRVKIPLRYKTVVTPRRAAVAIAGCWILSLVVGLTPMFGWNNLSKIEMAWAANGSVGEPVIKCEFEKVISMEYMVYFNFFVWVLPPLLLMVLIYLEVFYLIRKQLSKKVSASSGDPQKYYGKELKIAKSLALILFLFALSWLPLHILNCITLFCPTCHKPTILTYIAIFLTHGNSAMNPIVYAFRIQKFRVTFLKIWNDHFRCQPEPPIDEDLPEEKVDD

| Ki (Adenosine receptor A3) [nM] | Ki (P2Y purinoceptor 2) [nM] | Ki (Adenosine receptor A1 [1]) [nM] | Ki (Adenosine receptor A1 [2]) [nM] | Ki (Adenosine receptor A1 [3]) [nM] | Ki (Adenosine receptor A1 [4]) | Compound |
| --- | --- | --- | --- | --- | --- | --- |
| 0.1 | 0.14 | 0.05 | – | – | – | CCCn1c(=O)c2[nH]c(C3CCCC3)nc2n(CCC)c1=O [DPCPX] |
| 0.09 | 0.31 | 0.03 | 0.49 | 0.45 | 1.48 nM and 5.49 nM | CCCn1c(=O)c2[nH]c(-c3ccc(OCC(=O)NCCN)cc3)nc2n(CCC)c1=O [N-(2-Amino-ethyl)-2-[4-(2,6-dioxo-1,3-dipropyl-2,3,6,9-tetrahydro-1H-purin-8-yl)-phenoxy]-acetamide] |
| 2.9 | 4.3 | 1.4 | 6.3 | 6.4 | 26.1 nM | Cn1c(=O)c2[nH]c(C3CCCC3)nc2n(C)c1=O [NSC_1917] |

| Compound | Ki (Adenosine receptor A3) [nM] | Ki (P2Y purinoceptor 2) [nM] | Ki (Adenosine receptor A1 [1]) [nM] | Ki (Adenosine receptor A1 [2]) [nM] | Ki (Adenosine receptor A1 [3]) [nM] | Ki (Adenosine receptor A1 [4]) |
| --- | --- | --- | --- | --- | --- | --- |
| Cn1c(=O)c2[nH]cnc2n(C)c1=O [Theophylline (1,3-dimethylxanthine)] | 9050 | 4550 | – | – | 4710 | – |
